Assay results from patent EP0123217A1, “1-(4-(4-(Fluoralkylmethylthio or sulfinyl or sulfinyl-)phenoxy)phenyl)-1,3,5-triazine-2,4,6(1H-3H,5H)triones, process for their preparation and their use as agents against coccidiosis” (BAYER AG, priority 1983, dated 1984).
Where a name gives a salt, the structure may show the parent alone.

What was measured:
E. acervulina = experiment: Coccidiosis in chicks, minimum effective dose (oocyst excretion, clinical symptoms, mortality); format: in vivo, Eimeria acervulina
E. maxima = experiment: as above; format: in vivo, Eimeria maxima
E. falciformis = experiment: Coccidiosis in mice, minimum effective dose (oocyst excretion, clinical symptoms, mortality); format: in vivo, Eimeria falciformis; conditions: for minimal effective dose: Eimeria falciformis, mice (15 g), infected with 10,000 sporulated oocysts, treated on days 1, 2, 3, 6, 7 and 8 after infection, read-out: wirksame Mindestdosierung E. falciformis
From the text: Die coccidiostatische Aktivität von Verbindungen, die für die Verbindungen gemäß der Erfindung repräsentativ sind, wird in Tabelle 1 veranschaulicht, wo Eimeria tenella (Blinddarm-Coccidiose/Hühner), Eimeria acervulina und Eimeria maxima (Dünndarm-Coccidiose von Hühnern) als Beispiele der Aktivität im Falle der Coddidiose bei Geflügel genannt sind, während Eimeria falciformus (Coccidiose/Mäuse) als Coccidium bei Säugetieren angegeben ist.
Die Behandlung der Infektion mit Eimeria falciformis bei Mäusen, die als Beispiel der Coccidiose bei Säugetieren erwähnt ist, fand am ersten, zweiten, dritten, sechsten, siebten und achten Tag nach der Infektion statt. Die Infektion erfolgte mit.10,000 sporulierten Oozysten pro Maus (Gewicht 15 g). Im Falle der unbehandelten Vergleichstiere fanden massive Ausscheidung von Oozysten, blutiger Durchfall und 30 % Sterblichkeit der Tiere, die der Infektion zuzuschreiben waren, vom siebten Tage nach der Infektion an statt.
Als wirksam wurden diejenigen Dosen angesehen, die die Ausscheidung von Oozysten und/oder klinische Symptome der Coccidiose einschließlich der Mortalität vollständig oder in hohem Maße verhüteten.

E. tenella = experiment: Coccidiosis in chicks, minimum effective dose (oocyst excretion, clinical symptoms, mortality); format: in vivo, Eimeria tenella
[1] = chicks 9 to 11 days old, infected with 4000 sporulated oocysts, compound given from 3 days before to 8 days after infection

COc1cc(-n2c(=O)[nH]c(=O)n(C)c2=O)ccc1Oc1ccc(SCC(F)(F)F)cc1 [[drawing] r4]
wirksame Mindestdosierung E. acervulina (E. acervulina; [1]): 50 ppm
wirksame Mindestdosierung E. maxima (E. maxima; [1]): 50 ppm
minimal effective dose (E. falciformis): 25 mg/kg
wirksame Mindestdosierung E. tenella (E. tenella; [1]): 50 ppm

CCCc1ncc(C[n+]2ccccc2C)c(N)n1 [A, 1[(4-Amino-2-propyl-5-pyrimidinyl)-methyl]-2-picoliniumchloridhydrochlorid, reference compound]
wirksame Mindestdosierung E. acervulina (E. acervulina; [1]): 125 ppm
wirksame Mindestdosierung E. maxima (E. maxima; [1]): 125 ppm
minimal effective dose (E. falciformis): 500 mg/kg
wirksame Mindestdosierung E. tenella (E. tenella; [1]): 125 ppm

CCC1(C2OC(C3OC(O)(CO)C(C)CC3C)CC2C)CCC(C2(C)CCC3(CC(O)C(C)C(C(C)C(OC)C(C)C(=O)O)O3)O2)O1 (centres unmarked) [M, reference compound]
wirksame Mindestdosierung E. acervulina (E. acervulina; in vivo): 50 ppm
wirksame Mindestdosierung E. maxima (E. maxima; in vivo): 50 ppm
wirksame Mindestdosierung E. falciformis (E. falciformis; in vivo): 250 mg/kg
wirksame Mindestdosierung E. tenella (E. tenella; in vivo): 75 ppm

Cn1c(=O)[nH]c(=O)n(-c2cc(Cl)c(Oc3ccc(SCC(F)(F)F)cc3)c(Cl)c2)c1=O [[drawing] r3]
wirksame Mindestdosierung E. acervulina (E. acervulina; [1]): 25 ppm
wirksame Mindestdosierung E. maxima (E. maxima; [1]): 25 ppm
minimal effective dose (E. falciformis): 1 mg/kg
wirksame Mindestdosierung E. tenella (E. tenella; [1]): 50 ppm

Cn1c(=O)[nH]c(=O)n(-c2cc(Cl)c(Oc3ccc(S(=O)(=O)CC(F)(F)F)cc3)c(Cl)c2)c1=O [[drawing] r5]
wirksame Mindestdosierung E. acervulina (E. acervulina; [1]): 10 ppm
wirksame Mindestdosierung E. maxima (E. maxima; [1]): 10 ppm
minimal effective dose (E. falciformis): 100 mg/kg
wirksame Mindestdosierung E. tenella (E. tenella; [1]): 10 ppm
